Values joined by “and” are separate entries in the source; they are usually repeats but may differ in a detail not shown here. Equal entries are not always repeated. Inconclusive results and toxic doses are left out.
System: L1210 leukemia ip in BDF1 mice, survival T/C
Test: NCI In Vivo Anticancer Drug Screen. Data for tumor model L1210 Leukemia (intraperitoneal) in B6D2F1 (BDF1) mice
Details: endpoint: mean survival time, higher = longer survival
In short: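 In this screen, tumor-bearing mice given compound are compared to those given vehicle, and their survival values are reported as a treated-to-control quotient.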

[1] = dose: 12.5 mg/kg/injection, schedule: Q01DX009 (ip), vehicle: saline with Tween-80
[2] = dose: 100.0 mg/kg/injection, schedule: Q04DX003 (ip), vehicle: Klucel (hydroxypropylcellulose) (HPC)
[3] = dose: 100.0 mg/kg/injection, schedule: Q01DX009 (ip), vehicle: saline with Tween-80
[4] = dose: 100.0 mg/kg/injection, schedule: Q04DX003 (ip), vehicle: saline with Tween-80
[5] = dose: 200.0 mg/kg/injection, schedule: Q01DX009 (ip), vehicle: saline with Tween-80
[6] = dose: 200.0 mg/kg/injection, schedule: Q04DX003 (ip), vehicle: saline with Tween-80
[7] = dose: 400.0 mg/kg/injection, schedule: Q01DX009 (ip), vehicle: saline with Tween-80
[8] = dose: 400.0 mg/kg/injection, schedule: Q04DX003 (ip), vehicle: saline with Tween-80
[9] = dose: 100.0 mg/kg/injection, schedule: Q01DX001 (ip), vehicle: saline
[10] = dose: 200.0 mg/kg/injection, schedule: Q01DX001 (ip), vehicle: saline
[11] = dose: 50.0 mg/kg/injection, schedule: Q01DX009 (ip), vehicle: saline
[12] = dose: 100.0 mg/kg/injection, schedule: Q01DX009 (ip), vehicle: saline
[13] = dose: 50.0 mg/kg/injection, schedule: Q01DX009 (ip), vehicle: saline with Tween-80
[14] = dose: 100.0 mg/kg/injection, schedule: Q04DX002 (ip), vehicle: saline with Tween-80
[15] = dose: 200.0 mg/kg/injection, schedule: Q04DX002 (ip), vehicle: saline with Tween-80
[16] = dose: 400.0 mg/kg/injection, schedule: Q04DX002 (ip), vehicle: saline with Tween-80

SMILES: Nc1nc(N)c(-c2ccc(Cl)c(Cl)c2)c(CBr)n1
- T/C (dose: 1.56 mg/kg/injection, schedule: Q01DX009 (ip), vehicle: saline with Tween-80): 101 % of control
- T/C (dose: 3.13 mg/kg/injection, schedule: Q01DX009 (ip), vehicle: saline with Tween-80): 101 % of control and 92 % of control
- T/C (dose: 6.25 mg/kg/injection, schedule: Q01DX009 (ip), vehicle: saline with Tween-80): 102 % of control
- T/C [1]: 99 % of control and 101 % of control
- T/C (dose: 12.5 mg/kg/injection, schedule: Q04DX003 (ip), vehicle: Klucel (hydroxypropylcellulose) (HPC)): 90 % of control
- T/C (dose: 25.0 mg/kg/injection, schedule: Q04DX003 (ip), vehicle: Klucel (hydroxypropylcellulose) (HPC)): 113 % of control
- T/C (dose: 50.0 mg/kg/injection, schedule: Q04DX003 (ip), vehicle: Klucel (hydroxypropylcellulose) (HPC)): 87 % of control
- T/C [2]: 87 % of control

SMILES: CN(N)c1nc2c(N)ncnc2n1C1OC(CO)C(O)C1O (stereo unspecified)
- T/C (dose: 12.5 mg/kg/injection, schedule: Q01DX005 (ip), vehicle: saline): 97 % of control
- T/C (dose: 25.0 mg/kg/injection, schedule: Q01DX005 (ip), vehicle: saline): 108 % of control
- T/C (dose: 50.0 mg/kg/injection, schedule: Q01DX005 (ip), vehicle: saline): 100 % of control

SMILES: O=C(CCl)c1cccnc1C(=O)O
- T/C (dose: 25.0 mg/kg/injection, schedule: Q01DX009 (ip), vehicle: saline sonified): 94 % of control
- T/C (dose: 50.0 mg/kg/injection, schedule: Q01DX009 (ip), vehicle: saline sonified): 91 % of control
- T/C (dose: 100.0 mg/kg/injection, schedule: Q01DX009 (ip), vehicle: saline sonified): 89 % of control

SMILES: S=C([S][Sn]([c]1ccccc1)([c]1ccccc1)[c]1ccccc1)N1CCCCC1
- T/C [2]: 100 % of control
- T/C (dose: 200.0 mg/kg/injection, schedule: Q04DX003 (ip), vehicle: Klucel (hydroxypropylcellulose) (HPC)): 94 % of control
- T/C (dose: 400.0 mg/kg/injection, schedule: Q04DX003 (ip), vehicle: Klucel (hydroxypropylcellulose) (HPC)): 94 % of control

SMILES: O=Cc1ccc([N+](=O)[O-])s1
- T/C [3]: 101 % of control
- T/C [4]: 102 % of control
- T/C [5]: 97 % of control
- T/C [6]: 110 % of control
- T/C [7]: 101 % of control
- T/C [8]: 121 % of control

SMILES: CC1NCCCNCCCNC(C)c2cccc1n2 (stereo unspecified)
- T/C (dose: 12.5 mg/kg/injection, schedule: Q04DX002 (ip), vehicle: saline): 92 % of control
- T/C (dose: 25.0 mg/kg/injection, schedule: Q04DX002 (ip), vehicle: saline): 89 % of control

SMILES: CCOc1ccc(-n2c(=O)c(N=Nc3ccc(Cl)cc3)c(O)n(-c3ccccc3OC)c2=S)cc1
- T/C (dose: 37.5 mg/kg/injection, schedule: Q01DX001 (ip), vehicle: Klucel (hydroxypropylcellulose) (HPC)): 92 % of control
- T/C (dose: 75.0 mg/kg/injection, schedule: Q01DX001 (ip), vehicle: Klucel (hydroxypropylcellulose) (HPC)): 113 % of control
- T/C (dose: 150.0 mg/kg/injection, schedule: Q01DX001 (ip), vehicle: Klucel (hydroxypropylcellulose) (HPC)): 103 % of control

SMILES: O=[N+]([O-])c1ccn(O)c(=NC2CCCCC2)c1
- T/C [9]: 98 % of control
- T/C [10]: 93 % of control
- T/C (dose: 400.0 mg/kg/injection, schedule: Q01DX001 (ip), vehicle: saline): 100 % of control

SMILES: C[N+]1(C)C2CC(=O)CC1C1CC12 (stereo unspecified)
- T/C [11]: 91 % of control
- T/C [12]: 93 % of control
- T/C (dose: 100.0 mg/kg/injection, schedule: Q04DX003 (ip), vehicle: saline): 100 % of control
- T/C (dose: 200.0 mg/kg/injection, schedule: Q01DX009 (ip), vehicle: saline): 88 % of control
- T/C (dose: 200.0 mg/kg/injection, schedule: Q04DX003 (ip), vehicle: saline): 103 % of control

SMILES: C(=C\c1ccc(C2=NCCN2)cc1)/c1ccc(C2=NCCN2)cc1
- T/C (dose: 11.5 mg/kg/injection, schedule: Q01DX Z (ip), vehicle: carboxymethylcellulose (CMC)): 115 % of control
- T/C (dose: 23.0 mg/kg/injection, schedule: Q01DX Z (ip), vehicle: carboxymethylcellulose (CMC)): 119 % of control
- T/C (dose: 46.0 mg/kg/injection, schedule: Q01DX Z (ip), vehicle: carboxymethylcellulose (CMC)): 150 % of control
- T/C (dose: 62.0 mg/kg/injection, schedule: Q01DX Z (oral), vehicle: carboxymethylcellulose (CMC)): 103 % of control
- T/C (dose: 125.0 mg/kg/injection, schedule: Q01DX Z (oral), vehicle: carboxymethylcellulose (CMC)): 108 % of control
- T/C (dose: 250.0 mg/kg/injection, schedule: Q01DX Z (oral), vehicle: carboxymethylcellulose (CMC)): 104 % of control
- T/C (dose: 500.0 mg/kg/injection, schedule: Q01DX Z (oral), vehicle: carboxymethylcellulose (CMC)): 101 % of control

SMILES: CCOC(=O)c1cnn2c(SC)ncnc12
- T/C (dose: 25.0 mg/kg/injection, schedule: Q04DX003 (ip), vehicle: saline with Tween-80): 102 % of control
- T/C [13]: 102 % of control
- T/C (dose: 50.0 mg/kg/injection, schedule: Q04DX003 (ip), vehicle: saline with Tween-80): 104 % of control
- T/C [3]: 91 % of control
- T/C [4]: 107 % of control

SMILES: CC/C(=C(\CC)c1ccc(OCCN(CC)CC)cc1)c1ccc(OCCN(CC)CC)cc1
- T/C (dose: 5.0 mg/kg/injection, schedule: Q01DX001 (ip), vehicle: carboxymethylcellulose (CMC)): 94 % of control
- T/C (dose: 10.0 mg/kg/injection, schedule: Q01DX001 (ip), vehicle: carboxymethylcellulose (CMC)): 96 % of control
- T/C (dose: 40.0 mg/kg/injection, schedule: Q01DX001 (ip), vehicle: carboxymethylcellulose (CMC)): 94 % of control
- T/C (dose: 100.0 mg/kg/injection, schedule: Q01DX001 (ip), vehicle: carboxymethylcellulose (CMC)): 106 % of control

SMILES: CCOC(=O)OC(C#N)c1ccccc1 (stereo unspecified)
- T/C [1]: 93 % of control
- T/C (dose: 25.0 mg/kg/injection, schedule: Q01DX009 (ip), vehicle: saline with Tween-80): 94 % of control

SMILES: O=C1CCCC2C1C1(O)CCC2(O)c2cccc(O)c21 (stereo unspecified)
- T/C (dose: 6.25 mg/kg/injection, schedule: Q01DX009 (ip), vehicle: saline): 109 % of control
- T/C (dose: 12.5 mg/kg/injection, schedule: Q01DX009 (ip), vehicle: saline): 102 % of control
- T/C (dose: 25.0 mg/kg/injection, schedule: Q01DX009 (ip), vehicle: saline): 101 % of control
- T/C [11]: 98 % of control
- T/C [9]: 96 % of control
- T/C [12]: 91 % of control
- T/C [10]: 103 % of control

SMILES: CN(C)c1ccc(NC(=O)/C=C/C(=O)O)cc1
- T/C [4]: 108 % of control
- T/C [6]: 101 % of control
- T/C [8]: 101 % of control

SMILES: Brc1ccc(C2CCCCC2)cc1
- T/C [4]: 97 % of control
- T/C [6]: 93 % of control
- T/C [8]: 101 % of control

SMILES: CCCCN(CCCC)S(=O)(=O)CC
- T/C [14]: 100 % of control
- T/C [15]: 98 % of control
- T/C [16]: 95 % of control

SMILES: COc1cc(/C=C(/C#N)C(=O)N2CCOCC2)cc(OC)c1OC
- T/C [3]: 87 % of control
- T/C [14]: 90 % of control
- T/C [5]: 93 % of control
- T/C [15]: 104 % of control
- T/C [7]: 93 % of control
- T/C [16]: 101 % of control

SMILES: CCOC(=O)c1ccc(NC(=O)Oc2ccc3ccccc3c2)cc1
- T/C (dose: 100.0 mg/kg/injection, schedule: Q01DX001 (ip), vehicle: saline with Tween-80): 96 % of control
- T/C [3]: 100 % of control and 90 % of control
- T/C [14]: 99 % of control and 88 % of control
- T/C (dose: 200.0 mg/kg/injection, schedule: Q01DX001 (ip), vehicle: saline with Tween-80): 93 % of control and 86 % of control
- T/C [5]: 92 % of control and 100 % of control
- T/C [15]: 97 % of control and 91 % of control
- T/C (dose: 400.0 mg/kg/injection, schedule: Q01DX001 (ip), vehicle: saline with Tween-80): 93 % of control and 91 % of control
- T/C [7]: 100 % of control and 90 % of control
- T/C [16]: 92 % of control and 88 % of control

SMILES: CCc1nc2c(c(=O)[nH]1)C(c1ccc(Cl)cc1)C(C)(C)O2 (stereo unspecified)
- T/C (dose: 200.0 mg/kg/injection, schedule: Q04DX003 (ip), vehicle: acetone): 94 % of control
- T/C (dose: 400.0 mg/kg/injection, schedule: Q04DX003 (ip), vehicle: acetone): 105 % of control

SMILES: OCC1(Br)CCC(Br)(CO)CC1 (stereo unspecified)
- T/C (dose: 100.0 mg/kg/injection, schedule: Q04DX002 (ip), vehicle: Klucel (hydroxypropylcellulose) (HPC)): 103 % of control
- T/C [4]: 104 % of control
- T/C (dose: 200.0 mg/kg/injection, schedule: Q04DX002 (ip), vehicle: Klucel (hydroxypropylcellulose) (HPC)): 111 % of control
- T/C [6]: 98 % of control
- T/C (dose: 400.0 mg/kg/injection, schedule: Q04DX002 (ip), vehicle: Klucel (hydroxypropylcellulose) (HPC)): 107 % of control
- T/C [8]: 96 % of control

SMILES: O=C(/C=C/c1ccccc1)c1ccc(Cl)c(Cl)c1
- T/C [13]: 101 % of control
- T/C [3]: 101 % of control
- T/C [5]: 97 % of control

— PubChem BioAssay AID248 (DTP/NCI, 2004)
